According to patent publication US4929601A, “Tripeptides useful as immunostimulants as well as in the prevention of metastases” (Ellem Industria Farmaceutica, S.p.A., priority 1987, dated 1990):

How the values were obtained:
[1] = test system: PHA-stimulated human T lymphocytes; experiment: RNA synthesis in PHA-stimulated human T lymphocytes in vitro (3H-uridine); type: cell-based; settings: for RNA synthesis, 3H-uridine c.p.m. (mean): control 3835
Experimental: Human T lymphocytes, incubated in vitro for 24 hours in presence of 0.5% phytohemagglutinin (PHA) and different concentrations of the tripeptides under examination, have been analyzed for RNA synthesis (cell activation) by means of 3H-uridine labelling.

[2] = Toxicological trials: LD50 in mice; settings: mouse, in vivo, ip; i.p. in mice
Human T lymphocytes [3] = experiment: Stimulation of lymphokine production in vitro: TCGF (IL-2) activity of supernatants; type: cell-based
Experimental: (§1) Human T lymphocytes have been incubated with PHA and with or without the peptides under examination for 24 hours (in the case of IL-2) or 72 hours (in the case of BCGF).
(§2) The supernatants have been collected, filtered (0.2 μm) and assayed for the presence of IL-2 or BCGF activity, by adding them at different concentrations to fresh T lymphocytes or to long term cultured B cells. The proliferating activity of these cells, dependent on the presence of the respective growth factor, has been evaluated through 3H-thymidine incorporation.

[4] = test system: spleen cells of normal mice; experiment: Induction of Thy 1.2 antigen in spleen cells of normal mice; type: cell-based
Description: The capacity of the tripeptide Arg-Gly-Asp to induce in vitro the differentiation of T cell precursors into lymphocytes expressing T cell markers has been tested by evidencing the induction of Thy 1.2 membrane antigen.
Spleen cells of normal mice have been used as source of "null" cells.
Mice were killed by cervical dislocation.
Spleens were aseptically removed and finely minced with forceps in Hank's balanced salt solution (HBSS) (Gibco Ltd, Paisley, Scotland). A suspension of single cells was obtained through filtration on a fine mesh wire sieve. Mononuclear cells (MNC) have been isolated through differential centrifugation on Lymphoprep (Nyegaard, Oslo, Norway) with continuous density gradient for 20 minutes at 450 g.
After 3 washes in HBSS, MNC were suspended at a concentration of 5×10^6 cells/ml in 199 medium (Gibco Ltd) supplemented with 1% BSA (Cohn Fr. V. Sigma, St. Louis), L-glutamine 2 mM and 10 mcg/ml of gentamycin sulfate (Schering, Klworth, N.J., U.S.A.) (TC 199-BSA). The cells have been used when their viability was over 95% at the Trypan Blue exclusion test.
Two hundred μl of the spleen MNC suspension have been mixed with the same volume of the tripeptide opportunely diluted with TC 199-BSA medium. The control cells have only been treated with the medium TC 199-BSA. […] containing 5% CO2, then washed twice with HBSS containing 5% heat-inactivated neonatal calf serum (Gibco) (HBSSS-CS) and finally resuspended in the same medium at a concentration of 10^6 cells/ml.
The expression of Thy 1.2 antigen was analyzed by IF using and anti-Thy 1.2 monoclonal antibody conjugated with fluorescein (Bio-Yeda, supplied by Technogenetics, S. Mauro Torinese, Italy) at the concentration of 2 mcg/10^6 cells. The cells have been incubated with the antibody for 30 minutes at 4° C.
After three washes in HBSS, the cells have been resuspended in the same medium and observed with a Leitz Orthomat microscope equipped with epiillumination.
At least 300 cells have been counted in each evaluation.

Human T lymphocytes [5] = experiment: Stimulation of lymphokine production in vitro: BCGF activity of supernatants; type: cell-based
Experimental: as §1, §2

[6] = test system: pure human T lymphocytes, without macrophages; experiment: Lymphokine production by pure human T lymphocytes without macrophages (+IL-1): TCGF activity; type: cell-based
Description: as §2
The lymphokine production by human T lymphocytes purified through […] on nylon wool column has been evaluated with the same methods as in the previous experiment.
In order to obviate the lack of macrophages, recombinant IL-1 β (Genzyme) has been added at the concentration of 25 Units/ml.

[7] = test system: B16-BL6 murine melanoma cells; experiment: Antimetastatic activity: pulmonary colonization by melanoma cells inoculated in mice; type: in vivo, female C57BL/6 mice
Description: The capacity of the tripeptide […] of inhibiting the pulmonary colonization by B16-BL6 murine melanoma cells inoculated in female C57BL/6 mice having an average body weight of 20 g (10 animals per group) has been evaluated. […] Fourteen days later, the animals have been sacrificed, the lungs have been withdrawn and examined after formalin fixation for the presence of surface melanoma colonies. A group of control animals has only been treated with the tumour cell suspension.

With `N=C(N)NCCC[C@H](N)C(=O)NCC(=O)N[C@@H](CC(=O)O)C(=O)O` [ARG--GLY--ASP, L-Arginyl-glycyl-L-aspartic acid] the “PHA-induced human T lymphocyte activation (RNA synthesis)” value ([1]; 24 hours, 0.5% PHA) was “able to increase”, the “RNA synthesis Δ %” value ([1]; peptide 0.0001 mcg/ml) was -3% and the “RNA synthesis, 3H-uridine c.p.m. (mean)” value ([1]; peptide 0.0001 mcg/ml, 24 hours, 0.5% PHA) was 3703 c.p.m. For the same compound, the “RNA synthesis Δ %” value ([1]; peptide 0.001 mcg/ml) was -2%, the “RNA synthesis, 3H-uridine c.p.m. (mean)” value ([1]; peptide 0.001 mcg/ml, 24 hours, 0.5% PHA) was 3741 c.p.m and the “RNA synthesis Δ %” value ([1]; peptide 0.01 mcg/ml) was “+11%”. The “RNA synthesis, 3H-uridine c.p.m. (mean)” value ([1]; peptide 0.01 mcg/ml, 24 hours, 0.5% PHA) was 4259 c.p.m, the “RNA synthesis Δ %” value ([1]; peptide 0.1 mcg/ml) was “+18%” and the “RNA synthesis, 3H-uridine c.p.m. (mean)” value ([1]; peptide 0.1 mcg/ml, 24 hours, 0.5% PHA) was 4516 c.p.m. For the same compound, the “RNA synthesis Δ %” value ([1]; peptide 1 mcg/ml) was “+6%”, the “RNA synthesis, 3H-uridine c.p.m. (mean)” value ([1]; peptide 1 mcg/ml, 24 hours, 0.5% PHA) was 4068 c.p.m and the “RNA synthesis Δ %” value ([1]; peptide 10 mcg/ml) was “+9%”. The “RNA synthesis, 3H-uridine c.p.m. (mean)” value ([1]; peptide 10 mcg/ml, 24 hours, 0.5% PHA) was 4199 c.p.m, the LD50 [2] was over 1000 mg/kg and the “TCGF activity Δ %” value (Human T lymphocytes [3]; 3.125% of supernatant) was “+107%”. The “TCGF ACTIVITY (mean)” value (Human T lymphocytes [3]; 3.125% of supernatant, T + PHA 1564) was 3245 COUNTS PER MINUTE, the “TCGF activity Δ %” value (Human T lymphocytes [3]; 6.25% of supernatant) was “+224%” and the “TCGF ACTIVITY (mean)” value (Human T lymphocytes [3]; 6.25% of supernatant, T + PHA 2622) was 8496 COUNTS PER MINUTE. For the same compound, the “TCGF activity Δ %” value (Human T lymphocytes [3]; 12.5% of supernatant) was “+227%”, the “TCGF ACTIVITY (mean)” value (Human T lymphocytes [3]; 12.5% of supernatant, T + PHA 4012) was 13113 COUNTS PER MINUTE and the “TCGF activity Δ %” value (Human T lymphocytes [3]; 25% of supernatant) was “+105%”. For the same compound, the “TCGF ACTIVITY (mean)” value (Human T lymphocytes [3]; 25% of supernatant, T + PHA 7824) was 16609 COUNTS PER MINUTE, the “TCGF activity Δ %” value (Human T lymphocytes [3]; 50% of supernatant) was “+29%” and the “TCGF ACTIVITY (mean)” value (Human T lymphocytes [3]; 50% of supernatant, T + PHA 14086) was 18167 COUNTS PER MINUTE. The “VARIATION of % THY 1.2 + cells” value ([4]; 0.1 μg/ml, 3 hours of incubation) was “+3.3”, the “% THY 1.2 + CELLS” value ([4]; 0.1 μg/ml, 3 hours of incubation, control 22.0) was 25.3% and the “VARIATION of % THY 1.2 + cells” value ([4]; 1 μg/ml, 3 hours of incubation) was “+5.1”. For the same compound, the “% THY 1.2 + CELLS” value ([4]; 1 μg/ml, 3 hours of incubation, control 22.0) was 27.1%, the “VARIATION of % THY 1.2 + cells” value ([4]; 10 μg/ml, 3 hours of incubation) was “+9.4” and the “% THY 1.2 + CELLS” value ([4]; 10 μg/ml, 3 hours of incubation, control 22.0) was 31.4%. For the same compound, the “VARIATION of % THY 1.2 + cells” value ([4]; 10 μg/ml, 18 hours of incubation) was “+9.5”, the “% THY 1.2 + CELLS” value ([4]; 10 μg/ml, 18 hours of incubation, control 17.0) was 26.5% and the “VARIATION of % THY 1.2 + cells” value ([4]; 100 μg/ml, 3 hours of incubation) was “+7.4”. The “% THY 1.2 + CELLS” value ([4]; 100 μg/ml, 3 hours of incubation, control 22.0) was 29.4%, the “VARIATION of % THY 1.2 + cells” value ([4]; 100 μg/ml, 18 hours of incubation) was “+4.7” and the “% THY 1.2 + CELLS” value ([4]; 100 μg/ml, 18 hours of incubation, control 17.0) was 21.7%. For the same compound, the “VARIATION of % THY 1.2 + cells” value ([4]; 200 μg/ml, 3 hours of incubation) was “+5.9”, the “% THY 1.2 + CELLS” value ([4]; 200 μg/ml, 3 hours of incubation, control 22.0) was 27.9% and the “optimum concentration for Thy 1.2 induction” value ([4]; in vitro) was 10 µg/mL. For the same compound, the “BCGF activity Δ %” value (Human T lymphocytes [5]; 3.125% of supernatant) was “+257%”, the “BCGF ACTIVITY (mean)” value (Human T lymphocytes [5]; 3.125% of supernatant, T + PHA 1345) was 4800 COUNTS PER MINUTE and the “BCGF activity Δ %” value (Human T lymphocytes [5]; 6.25% of supernatant) was “+299%”. For the same compound, the “BCGF ACTIVITY (mean)” value (Human T lymphocytes [5]; 6.25% of supernatant, T + PHA 2156) was 8611 COUNTS PER MINUTE, the “BCGF activity Δ %” value (Human T lymphocytes [5]; 12.5% of supernatant) was “+206%” and the “BCGF ACTIVITY (mean)” value (Human T lymphocytes [5]; 12.5% of supernatant, T + PHA 5402) was 16550 COUNTS PER MINUTE. For the same compound, the “BCGF activity Δ %” value (Human T lymphocytes [5]; 25% of supernatant) was “+24%”, the “BCGF ACTIVITY (mean)” value (Human T lymphocytes [5]; 25% of supernatant, T + PHA 15030) was 18645 COUNTS PER MINUTE and the “BCGF activity Δ %” value (Human T lymphocytes [5]; 50% of supernatant) was “+19%”. The “BCGF ACTIVITY (mean)” value (Human T lymphocytes [5]; 50% of supernatant, T + PHA 17297) was 20508 COUNTS PER MINUTE, the “stimulation of the growth factor production” value (Human T lymphocytes [5]; IL-2 and BCGF, slightly lower than Arg-Lys-Glu, higher than Arg-Lys-Asp) was “marked effect of stimulation” and the “TCGF activity Δ %” value ([6]; 1 mcg/ml, 3.125% of supernatant) was “+17%”. The “TCGF ACTIVITY c.p.m.” value ([6]; 1 mcg/ml, 3.125% of supernatant, T + PHA + IL-1 1696) was 1984 c.p.m, the “TCGF activity Δ %” value ([6]; 1 mcg/ml, 6.25% of supernatant) was “+145%” and the “TCGF ACTIVITY c.p.m.” value ([6]; 1 mcg/ml, 6.25% of supernatant, T + PHA + IL-1 2817) was 6893 c.p.m. The “TCGF activity Δ %” value ([6]; 1 mcg/ml, 12.5% of supernatant) was “+259%”, the “TCGF ACTIVITY c.p.m.” value ([6]; 1 mcg/ml, 12.5% of supernatant, T + PHA + IL-1 3663) was 13147 c.p.m and the “TCGF activity Δ %” value ([6]; 1 mcg/ml, 25% of supernatant) was “+209%”. For the same compound, the “TCGF ACTIVITY c.p.m.” value ([6]; 1 mcg/ml, 25% of supernatant, T + PHA + IL-1 4812) was 14862 c.p.m, the “TCGF activity Δ %” value ([6]; 1 mcg/ml, 50% of supernatant) was “+149%” and the “TCGF ACTIVITY c.p.m.” value ([6]; 1 mcg/ml, 50% of supernatant, T + PHA + IL-1 6297) was 15654 c.p.m. For the same compound, the “TCGF activity Δ %” value ([6]; 10 mcg/ml, 3.125% of supernatant) was “+2%”, the “TCGF ACTIVITY c.p.m.” value ([6]; 10 mcg/ml, 3.125% of supernatant, T + PHA + IL-1 1696) was 1736 c.p.m and the “TCGF activity Δ %” value ([6]; 10 mcg/ml, 6.25% of supernatant) was “+125%”. The “TCGF ACTIVITY c.p.m.” value ([6]; 10 mcg/ml, 6.25% of supernatant, T + PHA + IL-1 2817) was 6342 c.p.m, the “TCGF activity Δ %” value ([6]; 10 mcg/ml, 12.5% of supernatant) was “+279%” and the “TCGF ACTIVITY c.p.m.” value ([6]; 10 mcg/ml, 12.5% of supernatant, T + PHA + IL-1 3663) was 13874 c.p.m. The “TCGF activity Δ %” value ([6]; 10 mcg/ml, 25% of supernatant) was “+128%”, the “TCGF ACTIVITY c.p.m.” value ([6]; 10 mcg/ml, 25% of supernatant, T + PHA + IL-1 4812) was 10968 c.p.m and the “TCGF activity Δ %” value ([6]; 10 mcg/ml, 50% of supernatant) was “+113%”. For the same compound, the “TCGF ACTIVITY c.p.m.” value ([6]; 10 mcg/ml, 50% of supernatant, T + PHA + IL-1 6297) was 13427 c.p.m, the “mean number of metastases” value ([7]; 3 mg/mouse i.v. together with 2×10^5 melanoma cells, lungs after 14 days, controls above 500/mouse) was 173 /mouse and the “change of mean number of metastases vs controls” value ([7]; 3 mg/mouse i.v., 7×10^4 tumour cells) was -69%. For the same compound, the “mean number of metastases” value ([7]; 3 mg/mouse i.v., 7×10^4 tumour cells, controls 21.6) was 6.8.
